Measurements: US20040082598A1, “Compounds specific to adenosine A, receptors and uses thereof” (OSI Pharmaceuticals, Inc., priority 2000, published 2004)
pIC50, pKi: −log10 of the molar value. Each block holds one compound with its values, some of them ahead of it.

Legend:
[1] = tested on: human A1 adenosine receptor; conditions: cited from earlier work
[2] = biological target: T1, human A1 receptor subtype (Homo sapiens, UniProt P30542); experiment: Adenosine 1 receptor subtype saturation and competition radioligand binding ([3H]DPCPX, yeast membranes)
T1 construct: yeast alpha-factor (Mfα1) prepro leader (N, cleaved yes); expressed in transfected cells; host or cells: Saccharomyces cerevisiae (strain CY12660 or related strains carrying plasmid p5095)
T1 sequence (P30542 1-326): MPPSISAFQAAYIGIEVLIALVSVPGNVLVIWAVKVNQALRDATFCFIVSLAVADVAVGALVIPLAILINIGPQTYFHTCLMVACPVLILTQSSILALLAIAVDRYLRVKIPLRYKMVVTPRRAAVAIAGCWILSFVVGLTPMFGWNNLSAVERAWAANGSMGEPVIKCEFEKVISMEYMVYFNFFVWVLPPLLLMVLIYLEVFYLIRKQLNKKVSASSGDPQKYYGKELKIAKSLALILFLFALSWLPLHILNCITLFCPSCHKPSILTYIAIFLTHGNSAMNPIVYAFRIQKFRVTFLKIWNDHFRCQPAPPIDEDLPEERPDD

[3] = biological target: T2, human adenosine A1 (A1R) (Homo sapiens, UniProt P30542); experiment: Yeast β-galactosidase reporter gene assay, strain CY12660; assay type: cell-based; conditions: inhibition of NECA-induced β-galactosidase activity
T2 construct: yeast alpha-factor (Mfα1) prepro leader (N, cleaved yes); expressed in transfected cells; host or cells: Saccharomyces cerevisiae (strain CY12660 or related strains carrying plasmid p5095)
T2 sequence (P30542 1-326): T1 sequence (P30542 1-326)

[4] = biological target: T3, human A2a receptor subtype (Homo sapiens, UniProt P29274); experiment: Adenosine 2a receptor subtype competition radioligand binding ([3H]CGS-21680, HEK293 membranes); conditions: no footnote at cell; footnote 8 of table: % activity @ 10 μM
T3 construct: expressed in transfected cells; host or cells: HEK-293 (Cadus clone # 5)
T3 sequence (P29274 whole entry): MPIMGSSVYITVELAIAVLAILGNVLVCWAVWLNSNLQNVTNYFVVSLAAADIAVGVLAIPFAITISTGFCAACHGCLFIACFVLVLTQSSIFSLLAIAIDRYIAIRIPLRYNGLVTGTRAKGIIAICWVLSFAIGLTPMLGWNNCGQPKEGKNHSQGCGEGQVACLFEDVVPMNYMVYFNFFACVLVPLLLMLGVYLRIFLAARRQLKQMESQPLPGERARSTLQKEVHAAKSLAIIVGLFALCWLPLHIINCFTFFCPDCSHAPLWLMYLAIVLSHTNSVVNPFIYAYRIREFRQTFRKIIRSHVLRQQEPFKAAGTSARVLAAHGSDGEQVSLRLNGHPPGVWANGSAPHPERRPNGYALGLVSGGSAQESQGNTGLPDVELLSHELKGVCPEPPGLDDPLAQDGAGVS

[5] = biological target: T4, human A3 receptor subtype (Homo sapiens, UniProt P0DMS8); experiment: Adenosine 3 receptor competition radioligand binding ([125I]AB-MECA, HEK293 membranes)
T4 construct: expressed in transfected cells; host or cells: HEK293
T4 sequence (P0DMS8 1-318): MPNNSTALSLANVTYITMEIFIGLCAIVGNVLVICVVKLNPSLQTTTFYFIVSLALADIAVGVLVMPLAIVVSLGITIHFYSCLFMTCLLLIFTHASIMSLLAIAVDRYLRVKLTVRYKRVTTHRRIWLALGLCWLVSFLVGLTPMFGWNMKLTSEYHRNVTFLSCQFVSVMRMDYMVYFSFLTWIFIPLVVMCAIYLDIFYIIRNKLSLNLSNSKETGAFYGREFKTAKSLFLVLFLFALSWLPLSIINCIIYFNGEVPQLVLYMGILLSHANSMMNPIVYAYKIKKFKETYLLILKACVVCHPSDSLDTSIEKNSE

[6] = biological target: human A2a receptor; conditions: read-out: Reported Ki; cited from earlier work

Structure (SMILES): CC(Cc1ccccc1)Nc1ncnc2c1ncn2[C@@H]1O[C@H](CO)[C@@H](O)[C@H]1O (single isomer, unassigned; (-)) [PIA, (−)-N6-(2-phenylisopropyl)-adenosine]
- reported affinity [1]: approximately 50 nM

Structure (SMILES): Cc1[nH]c2nc(-c3ccccc3)nc(NC3CCC(NS(C)(=O)=O)CC3)c2c1C (stereo not drawn) [Compound 604]
- pKi [2]: < 5.00

Structure (SMILES): Cc1[nH]c2nc(-c3ccccc3)nc(NC3CCC(NC(=O)c4ccccc4)CC3)c2c1C (stereo not drawn) [Compound 606]
- pIC50 [3]: < 5.00
- pKi [2]: 6.53

Structure (SMILES): Cc1[nH]c2nc(-c3cccnc3)nc(N[C@H]3CC[C@H](O)CC3)c2c1C [Compound 700]
- pIC50 [3]: < 5.00

Structure (SMILES): CNC(=O)NCCCNc1nc(-c2ccccc2)nc2[nH]c(C)c(C)c12 [Compound 1310]
- A2a binding, % value printed in Ki column [4]: 76%

Structure (SMILES): Cc1[nH]c2nc(-c3ccccc3)nc(NCCNC(=O)C3(N)CC3)c2c1C [Compound 1313]
- A2a binding, % value printed in Ki column [4]: 65%
- A1 binding, % value printed in Ki column ([2]; no footnote at cell, footnote 8 of table: % activity @ 10 μM): 30%

Continued, values first:

- pIC50 [3]: < 5.00
- pKi [2]: 6.10
Structure (SMILES): Cc1[nH]c2nc(-c3ccccc3)nc(NC3CCC(CC(=O)c4ccccc4)CC3)c2c1C (stereo not drawn) [Compound 611]

- A3 binding, % activity @ 10 μM [5]: 54%^8
Structure (SMILES): O[C@H]1CC[C@H](Nc2nc(-c3ccncc3)nc3[nH]ccc23)CC1 [Compound 1321]

- melting point: 236 to 238 °C
Structure (SMILES): NC(=O)[C@@H]1CCCN1c1nc(-c2ccccc2)nc2[nH]ccc12 [Compound 1602]

- melting point: 213 to 215 °C
Structure (SMILES): COCc1cc2c(N3CCC[C@H]3C(N)=O)nc(-c3ccccc3)nc2[nH]1 [Compound 1605]

- melting point: 268 to 271 °C
Structure (SMILES): NC(=O)[C@@H]1C[C@H](O)CN1c1nc(-c2ccccc2)nc2[nH]ccc12 [Compound 1606, 4-Hydroxy-1-(2-phenyl-7H-pyrrolo[2,3-d]pyrimidin-4-yl]-pyrrolidine-2-carboxylic acid amide]

- melting point: 220 °C (dec.)
Structure (SMILES): NC(=O)[C@@H]1CCCN1c1nc(-c2ccccc2)nc2[nH]c(C(=O)O)cc12 [Compound 1619, [4-(2-Carbamoylpyrrolidin-1-yl)-2-phenyl-7H-pyrrolo[2,3-d]pyrimidine-6-carboxylic acid]]

- melting point: 225 to 227 °C
Structure (SMILES): COC(=O)c1cc2c(NC3CCC(O)CC3)nc(-c3ccccc3)nc2[nH]1 (stereo not drawn) [Compound 1627, 4-(4-Hydroxy-cyclohexylamino)-2-phenyl-7H-pyrrolo[2,3-d]pyrimidine-6-carboxylic acid methyl ester]

- melting point: 210 to 220 °C (dec.)
Structure (SMILES): NC(=O)c1cc2c(NC3CCC(O)CC3)nc(-c3ccccc3)nc2[nH]1 (stereo not drawn) [Compound 1630, 4-(4-Hydroxy-cyclohexylamino)-2-phenyl-7H-pyrrolo[2,3-d]pyrimidine-6-carboxylic acid amide]
